Read-outs that look alike come from different tables or passages of the source.
Assays:
[1] = Plasma pharmacokinetics by LC-MS/MS; format: in vivo, human; conditions: for Cmax / Tmax / Vd/F / half-life / AUC(0-inf): plasma, po; for Cmax: read-out: FdCyd Cmax; for Tmax: read-out: FdCyd Tmax; for Vd/F: read-out: FdCyd Vz/F; for half-life: read-out: FdCyd t½ (converted); for AUC(0-inf): read-out: FdCyd AUC0-inf; for FdCyd2h-D2: day 2; for FdCyd2h-D3: day 3
Procedure: (§1) Blood specimens for PK analysis were collected on Cycle 1 Day 1 (C1D1) prior to THU administration and then at 15, 30, and 45 min and 1, 2, 3, 4, 5, and 6 h after THU administration, as well as on C1D2 and C1D3 prior to and 2 h after THU administration. Urine specimens for PK analysis were collected on C1D1 prior to treatment and then at every void from 0 to 24 h after THU administration. All specimens for PK analysis were processed and analyzed by LC-MS/MS as described previously, and Phoenix WinNonlin software was used for data analysis.

[2] = system: p16-expressing cytokeratin-positive (CK+) CTCs; test: CellSearch analysis of CTC p16 expression, CK+ CTCs; format: in vivo, human; conditions: 23 of 30 evaluable patients; oral FdCyd + THU
Procedure: (§2) Each blood specimen for CTC analysis (7.5 mL) was collected into a 10-mL CellSave preservative tube (Menarini Silicon Biosystems). Specimens were collected pre-treatment and then 6 h after THU administration on C1D1; prior to THU administration on […] and either C1D8 or […] (at the end of the first round of drug administration); on day 1 of cycle 2 and all subsequent cycles; and optionally at time of progression. Blood sample collection for CTC analysis was performed relative to the morning dose of THU for patients on the BID dose levels (DL10-11). CTC samples were processed and analyzed for p16, cytokeratin, and vimentin as described previously. Serial baseline blood specimens (C1D1 pre, C1D1 post, and […]) were obtained in light of baseline variability in CTC counts and p16 expression, and patients were considered assessable for cytokeratin-positive (CK^+) CTC p16 response if at least one of these baseline specimens (i.e., C1D1 pre, C1D1 post, and/or […]) and at least one post-treatment specimen (collected C2D1 or later) each contained ≥ 6 CTCs, as described. For patients with multiple baseline specimens, the specimen with the highest frequency of p16-positive CTCs was considered “baseline,” as described.

[3] = Urinary excretion by LC-MS/MS; format: in vivo, human
Procedure: as §1

[4] = system: p16-expressing vimentin-positive (V+) CTCs; test: CellSearch analysis of CTC p16 expression, V+ CTCs; format: in vivo, human; conditions: 2 of the 22 evaluable patients; oral FdCyd + THU
Procedure: as §2

DNA methylation = system: DNA methylation; set-up: method as in PMID 2425957; conditions: preclinical data; 1 µM = 245 ng/mL; cited from earlier work
[5] = system: p16-expressing vimentin-positive (V+) CTCs; set-up: method as in PMID 32314030; conditions: intravenously administered FdCyd; 6 of 12; cited from earlier work
[6] = human, DL4: FdCyd 120 mg + THU 3000 mg oral (n=3), geom. mean (geom. SD)
[7] = human, DL5-9: FdCyd 160 mg + THU 3000 mg oral (n=31), geom. mean (geom. SD)
[8] = human, DL10: FdCyd 60 mg + THU 6000 mg oral (n=8), geom. mean (geom. SD)
[9] = human, DL11: FdCyd 80 mg + THU 6000 mg oral (n=3), geom. mean (geom. SD)
[10] = plasma FdCyd at 2 h, DL1: FdCyd 30 mg + THU 3000 mg oral (n=3), geom. mean (geom. SD)
[11] = plasma FdCyd at 2 h, DL2: FdCyd 60 mg + THU 3000 mg oral (n=4), geom. mean (geom. SD)
[12] = plasma FdCyd at 2 h, DL3: FdCyd 90 mg + THU 3000 mg oral (n=3), geom. mean (geom. SD)
[13] = plasma FdCyd at 2 h, DL4: FdCyd 120 mg + THU 3000 mg oral (n=3), geom. mean (geom. SD)
[14] = plasma FdCyd at 2 h, DL5-9: FdCyd 160 mg + THU 3000 mg oral (n=31), geom. mean (geom. SD)
[15] = plasma FdCyd at 2 h, DL10: FdCyd 60 mg + THU 6000 mg oral (n=8), geom. mean (geom. SD)
[16] = plasma FdCyd at 2 h, DL11: FdCyd 80 mg + THU 6000 mg oral (n=3), geom. mean (geom. SD)

Work on `Nc1nc(=O)n([C@H]2C[C@H](O)[C@@H](CO)O2)cc1F` [FdCyd, 5-fluoro-2’-deoxycytidine] yielded a Cmax [1, 6] of 890 ng/mL, a Tmax [1, 6] of 1.2 h and a Vd/F [1, 6] of 62 L. It also gave a half-life [1, 6] of 36 min, an AUC(0-inf) [1, 7] of 1200 ng·h/mL and a Cmax [1, 7] of 580 ng/mL. For the same molecule, the Tmax [1, 7] was 1.4 h, the Vd/F [1, 7] was 114 L and the half-life [1, 7] was 36 min. For the same molecule, the AUC(0-inf) [1, 8] was 630 ng·h/mL, the Cmax [1, 8] was 380 ng/mL and the Tmax [1, 8] was 0.8 h. The Vd/F [1, 8] was 63 L, the half-life [1, 8] was 30 min and the AUC(0-inf) [1, 9] was 1220 ng·h/mL. For the same molecule, the Cmax [1, 9] was 570 ng/mL, the Tmax [1, 9] was 1.5 h and the Vd/F [1, 9] was 44 L. The half-life [1, 9] was 30 min, the concentration at 2 h ([1]; human, plasma FdCyd at 2 h, day 1, DL10: FdCyd 60 mg + THU 6000 mg oral (n=8), geom. mean (geom. SD), read-out: FdCyd2h-D1) was 317 ng/mL and the “Relationship between week 1 cumulative FdCyd exposure and occurrence of DLT” value ([1]; in vivo) was “no statistically significant relationship”. The “FdCyd dose from which the target Cmax of 1 µM (245 ng/mL) was reached by individual patients” value ([1]; oral FdCyd with THU) was no less than 60 mg, the FdCyd2h-D1 ([1]; plasma FdCyd at 2 h, day 1, DL2: FdCyd 60 mg + THU 3000 mg oral (n=4), geom. mean (geom. SD)) was 0.203 (3.87) mg/L and the FdCyd2h-D1 ([1]; plasma FdCyd at 2 h, day 1, DL3: FdCyd 90 mg + THU 3000 mg oral (n=3), geom. mean (geom. SD)) was 0.525 (1.79) mg/L. The FdCyd2h-D1 ([1]; plasma FdCyd at 2 h, day 1, DL4: FdCyd 120 mg + THU 3000 mg oral (n=3), geom. mean (geom. SD)) was 0.611 (3.17) mg/L, the FdCyd2h-D1 ([1]; plasma FdCyd at 2 h, day 1, DL5-9: FdCyd 160 mg + THU 3000 mg oral (n=31), geom. mean (geom. SD)) was 0.505 (1.92) mg/L and the FdCyd2h-D1 ([1]; plasma FdCyd at 2 h, day 1, DL11: FdCyd 80 mg + THU 6000 mg oral (n=3), geom. mean (geom. SD)) was 0.571 (1.64) mg/L. The FdCyd2h-D2 [1, 10] was 0.076 (3.80) mg/L, the FdCyd2h-D2 [1, 11] was 0.169 (3.80) mg/L and the FdCyd2h-D2 [1, 12] was 0.449 (1.55) mg/L. The FdCyd2h-D2 [1, 13] was 0.499 (9.47) mg/L, the FdCyd2h-D2 [1, 14] was 0.595 (3.29) mg/L and the FdCyd2h-D2 [1, 15] was 0.559 (1.63) mg/L. For the same molecule, the FdCyd2h-D2 [1, 16] was 0.931 (1.99) mg/L, the FdCyd2h-D3 [1, 10] was 0.042 (2.6) mg/L and the FdCyd2h-D3 [1, 11] was 0.145 (1.14) mg/L. The FdCyd2h-D3 [1, 12] was 0.460 (2.89) mg/L, the FdCyd2h-D3 [1, 13] was 0.891 (2.08) mg/L and the FdCyd2h-D3 [1, 14] was 0.650 (1.98) mg/L. The FdCyd2h-D3 [1, 15] was 0.584 (1.60) mg/L, the FdCyd2h-D3 [1, 16] was 0.745 (2.48) mg/L and the “Patients with a treatment-associated increase in the proportion of p16+CK+ CTCs” value [2] was 77%. For the same molecule, the “FdCyd urinary excretion over 0-24 hours of day 1” value ([3]; All FdCyd doses + THU 3000 mg, N=6, geom. mean (geom. SD)) was 0.083 (2.2) % dose, the “FdCyd urinary excretion over 0-24 hours of day 1” value ([3]; All FdCyd doses + THU 6000 mg, N=3, geom. mean (geom. SD)) was 0.11 (2.6) % dose and the “FdCyd urinary excretion over 0-24 hours of day 1” value ([3]; DL5-9: FdCyd 160 mg + THU 3000 mg, N=6, geom. mean (geom. SD)) was 0.083 (2.2) % dose. For the same molecule, the “FdCyd urinary excretion over 0-24 hours of day 1” value ([3]; DL10: FdCyd 60 mg + THU 6000 mg, N=2, geom. mean (geom. SD)) was 0.15 (3.2) % dose, the “FdCyd urinary excretion over 0-24 hours of day 1” value ([3]; DL11: FdCyd 80 mg + THU 6000 mg, N=1) was 0.058 (-) % dose and the “Patients with increases in the proportion of p16-expressing V+ CTCs” value [4] was 9%. The “FdCyd concentration giving inhibition of DNA methylation in vitro” value (DNA methylation) was no less than 1 µM and the “Patients with increases in p16-expressing V+ CTCs” value [5] was 50%.
